Laboratory results published in patent US20040223918A1, “Aerosolization of cromolyn sodium using a capillary aerosol generator” (Chrysalis Technologies Incorporated, priority 2003, published 2004).

Assays:
[1] = Solubility of cromolyn sodium in ethanol and PG/EtOH mixtures; format: physicochemical; settings: Table 4 PG/EtOH mixtures, 0.25% Brij30 and 0.25% lecithin
Excerpt: FIG. 7 is a graph illustrating the solubility of cromolyn sodium in various propylene glycol/ethanol (PG/EtOH) mixtures, with 0.25% Brij30 and 0.25% lecithin. […] When formulated with 0.25% w/v Brij 30 and 0.25% lecithin, cromolyn sodium suspension formulations remained visually stable over a period of one to two weeks. There was no significant change in the particle size distribution of the suspended particles up to three days of standing at ambient condition. The addition of PG was primarily to prevent capillary clogging. The amount of PG required in the formulation was dependent on the API concentration.

[2] = cited from earlier work

solubility in PG/EtOH mixtures [1]: almost insoluble
SMILES: O=C(O)c1cc(=O)c2c(OCC(O)COc3cccc4oc(C(=O)O)cc(=O)c34)cccc2o1 [cromolyn sodium]
solubility in ethanol [2]: virtually insoluble
